Experimental data taken from ChEMBL document CHEMBL1201862, “PubChem BioAssay data set” (2004).
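Following 48 hours of exposure in 96-well plates, responses at five concentrations were used to interpolate endpoints linearly. The concentration for 50% growth inhibition is given as GI50.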 Active and inactive are the calls of the source. Rule as the data show it: active = GI50 up to about 1.1 µM and inactive = higher.

Assays:
Assay in all cases: growth of human tumour cells (NCI), 48 h
786-0 = tested on: 786-0
A498 = tested on: A498
A549 = tested on: A549
ACHN = tested on: ACHN
CCRF-CEM = tested on: CCRF-CEM
COLO 205 = tested on: COLO 205
DLD-1 = tested on: DLD-1
DMS-114 = tested on: DMS-114
DMS-273 = tested on: DMS-273
EKVX = tested on: EKVX
HCC 2998 = tested on: HCC 2998
HCT-116 = tested on: HCT-116
HCT-15 = tested on: HCT-15
HOP-18 = tested on: HOP-18
HOP-62 = tested on: HOP-62
HOP-92 = tested on: HOP-92
HT-29 = tested on: HT-29
IGROV-1 = tested on: IGROV-1
K562 = tested on: K562
KM-20L2 = tested on: KM-20L2
KM12 = tested on: KM12
LOX IMVI = tested on: LOX IMVI
LXFL 529 = tested on: LXFL 529
M14 = tested on: M14
M19-MEL = tested on: M19-MEL
MOLT-4 = tested on: MOLT-4
Malme-3M = tested on: Malme-3M
NCI-H226 = tested on: NCI-H226
NCI-H23 = tested on: NCI-H23
NCI-H460 = tested on: NCI-H460
NCI-H522 = tested on: NCI-H522
OVCAR-3 = tested on: OVCAR-3
OVCAR-4 = tested on: OVCAR-4
OVCAR-5 = tested on: OVCAR-5
OVCAR-8 = tested on: OVCAR-8
RXF 393 = tested on: RXF 393
SF-268 = tested on: SF-268
SF-295 = tested on: SF-295
SF-539 = tested on: SF-539
SK-MEL-28 = tested on: SK-MEL-28
SK-MEL-2 = tested on: SK-MEL-2
SK-MEL-5 = tested on: SK-MEL-5
SK-OV-3 = tested on: SK-OV-3
SN12C = tested on: SN12C
SNB-19 = tested on: SNB-19
SNB-75 = tested on: SNB-75
SNB-78 = tested on: SNB-78
SW-620 = tested on: SW-620
TK-10 = tested on: TK-10
U-251 = tested on: U-251
UACC-257 = tested on: UACC-257
UACC-62 = tested on: UACC-62
UO-31 = tested on: UO-31
XF498 = tested on: XF498
CAKI-1 = tested on: CAKI-1
HL-60 = tested on: HL-60
RPMI-8226 = tested on: RPMI-8226
RXF 631 = tested on: RXF 631
SR = tested on: SR

Structure (SMILES): N#CC(C(=N/NC(N)=S)/C(=N/NC(N)=S)C(C#N)c1ccc(Cl)cc1)c1ccc(Cl)cc1 (stereo not given)
- GI50 (786-0): > 100 µM (inactive)
- GI50 (A498): > 100 µM (inactive)
- GI50 (A549): > 100 µM (inactive)
- GI50 (ACHN): > 100 µM (inactive)
- GI50 (CCRF-CEM): 22.6 µM (inactive)
- GI50 (COLO 205): > 100 µM (inactive)
- GI50 (DLD-1): 34.1 µM (inactive)
- GI50 (DMS-114): > 100 µM (inactive)
- GI50 (DMS-273): > 100 µM (inactive)
- GI50 (EKVX): > 100 µM (inactive)
- GI50 (HCC 2998): > 100 µM (inactive)
- GI50 (HCT-116): > 100 µM (inactive)
- GI50 (HCT-15): 83.8 µM
- GI50 (HOP-18): 94.2 µM (inactive)
- GI50 (HOP-62): > 100 µM (inactive)
- GI50 (HOP-92): > 100 µM (inactive)
- GI50 (HT-29): > 100 µM (inactive)
- GI50 (IGROV-1): > 100 µM (inactive)
- GI50 (K562): 34.9 µM (inactive)
- GI50 (KM-20L2): > 100 µM (inactive)
- GI50 (KM12): > 100 µM (inactive)
- GI50 (LOX IMVI): > 100 µM (inactive)
- GI50 (LXFL 529): 49.7 µM (inactive)
- GI50 (M14): > 100 µM (inactive)
- GI50 (M19-MEL): > 100 µM (inactive)
- GI50 (MOLT-4): 22.7 µM (inactive)
- GI50 (Malme-3M): > 100 µM (inactive)
- GI50 (NCI-H226): > 100 µM (inactive)
- GI50 (NCI-H23): 65.5 µM (inactive)
- GI50 (NCI-H460): > 100 µM (inactive)
- GI50 (NCI-H522): > 100 µM (inactive)
- GI50 (OVCAR-3): 80 µM (inactive)
- GI50 (OVCAR-4): > 100 µM (inactive)
- GI50 (OVCAR-5): > 100 µM (inactive)
- GI50 (OVCAR-8): 53.8 µM (inactive)
- GI50 (RXF 393): 47.3 µM (inactive)
- GI50 (SF-268): > 100 µM (inactive)
- GI50 (SF-295): > 100 µM (inactive)
- GI50 (SF-539): > 100 µM (inactive)
- GI50 (SK-MEL-28): 81.3 µM (inactive)
- GI50 (SK-MEL-2): > 100 µM (inactive)
- GI50 (SK-MEL-5): 78.2 µM (inactive)
- GI50 (SK-OV-3): > 100 µM (inactive)
- GI50 (SN12C): > 100 µM (inactive)
- GI50 (SNB-19): > 100 µM (inactive)
- GI50 (SNB-75): 31.3 µM (inactive)
- GI50 (SNB-78): 35.6 µM (inactive)
- GI50 (SW-620): 41.7 µM (inactive)
- GI50 (TK-10): > 100 µM (inactive)
- GI50 (U-251): > 100 µM (inactive)
- GI50 (UACC-257): > 100 µM (inactive)
- GI50 (UACC-62): 59.6 µM (inactive)
- GI50 (UO-31): > 100 µM (inactive)
- GI50 (XF498): > 100 µM (inactive)

Structure (SMILES): CN(C)C(=O)CC(C(=O)O)c1c[nH]c2ccccc12 (stereo not given)
- GI50 (786-0): > 100 µM (inactive)
- GI50 (A498): > 100 µM (inactive)
- GI50 (A549): > 100 µM (inactive)
- GI50 (ACHN): > 100 µM (inactive)
- GI50 (CAKI-1): > 100 µM (inactive)
- GI50 (CCRF-CEM): > 100 µM (inactive)
- GI50 (COLO 205): > 100 µM (inactive)
- GI50 (DLD-1): > 100 µM (inactive)
- GI50 (DMS-114): > 100 µM (inactive)
- GI50 (DMS-273): > 100 µM (inactive)
- GI50 (EKVX): > 100 µM (inactive)
- GI50 (HCC 2998): > 100 µM (inactive)
- GI50 (HCT-116): > 100 µM (inactive)
- GI50 (HCT-15): > 100 µM
- GI50 (HL-60): > 100 µM (inactive)
- GI50 (HOP-62): > 100 µM (inactive)
- GI50 (HT-29): > 100 µM (inactive)
- GI50 (IGROV-1): > 100 µM (inactive)
- GI50 (K562): > 100 µM (inactive)
- GI50 (KM-20L2): > 100 µM (inactive)
- GI50 (KM12): > 100 µM (inactive)
- GI50 (LOX IMVI): > 100 µM (inactive)
- GI50 (LXFL 529): > 100 µM (inactive)
- GI50 (M14): > 100 µM (inactive)
- GI50 (M19-MEL): > 100 µM (inactive)
- GI50 (MOLT-4): > 100 µM (inactive)
- GI50 (Malme-3M): > 100 µM (inactive)
- GI50 (NCI-H23): > 100 µM (inactive)
- GI50 (NCI-H460): > 100 µM (inactive)
- GI50 (NCI-H522): > 100 µM (inactive)
- GI50 (OVCAR-3): > 100 µM (inactive)
- GI50 (OVCAR-4): > 100 µM (inactive)
- GI50 (OVCAR-8): > 100 µM (inactive)
- GI50 (RPMI-8226): > 100 µM (inactive)
- GI50 (RXF 393): 10.2 µM (inactive)
- GI50 (RXF 631): > 100 µM (inactive)
- GI50 (SF-295): > 100 µM (inactive)
- GI50 (SF-539): > 100 µM (inactive)
- GI50 (SK-MEL-2): > 100 µM (inactive)
- GI50 (SK-MEL-5): > 100 µM (inactive)
- GI50 (SN12C): > 100 µM (inactive)
- GI50 (SNB-19): > 100 µM (inactive)
- GI50 (SNB-75): > 100 µM (inactive)
- GI50 (SR): > 100 µM (inactive)
- GI50 (SW-620): > 100 µM (inactive)
- GI50 (TK-10): > 100 µM (inactive)
- GI50 (U-251): > 100 µM (inactive)
- GI50 (UACC-257): > 100 µM (inactive)
- GI50 (UACC-62): > 100 µM (inactive)
- GI50 (UO-31): 0.0895 µM (active)

Structure (SMILES): CCC12CCCN(Cc3ccccc3)C1c1c(n(C)c3ccccc13)C(CO)C2 (stereo not given)
- GI50 (786-0): 44.1 µM (inactive)
- GI50 (A549): 81.8 µM (inactive)
- GI50 (CAKI-1): 92.7 µM (inactive)
- GI50 (CCRF-CEM): 83 µM (inactive)
- GI50 (COLO 205): 38 µM (inactive)
- GI50 (DLD-1): 61.5 µM (inactive)
- GI50 (DMS-114): 37.8 µM (inactive)
- GI50 (DMS-273): 46.5 µM (inactive)
- GI50 (EKVX): 71.9 µM (inactive)
- GI50 (HCC 2998): 58.1 µM (inactive)
- GI50 (HCT-116): 14 µM (inactive)
- GI50 (HCT-15): 38.3 µM
- GI50 (HL-60): 43.4 µM (inactive)
- GI50 (HOP-62): 37.6 µM (inactive)
- GI50 (HOP-92): 33.4 µM (inactive)
- GI50 (HT-29): 17.9 µM (inactive)
- GI50 (IGROV-1): 38.5 µM (inactive)
- GI50 (K562): 29.4 µM (inactive)
- GI50 (KM-20L2): 29.3 µM (inactive)
- GI50 (KM12): 40.4 µM (inactive)
- GI50 (LOX IMVI): 41.9 µM (inactive)
- GI50 (LXFL 529): 41 µM (inactive)
- GI50 (M19-MEL): 59 µM (inactive)
- GI50 (MOLT-4): 22.4 µM (inactive)
- GI50 (Malme-3M): 46.6 µM (inactive)
- GI50 (NCI-H226): 34.3 µM (inactive)
- GI50 (NCI-H23): 52.2 µM (inactive)
- GI50 (NCI-H460): 39.5 µM (inactive)
- GI50 (NCI-H522): 30.8 µM (inactive)
- GI50 (OVCAR-3): 36.1 µM (inactive)
- GI50 (OVCAR-5): 10.5 µM (inactive)
- GI50 (OVCAR-8): 63.4 µM (inactive)
- GI50 (RPMI-8226): 37.2 µM (inactive)
- GI50 (RXF 393): 72.1 µM (inactive)
- GI50 (RXF 631): 56 µM (inactive)
- GI50 (SF-268): 114 µM (inactive)
- GI50 (SF-295): 26.9 µM (inactive)
- GI50 (SF-539): 37.6 µM (inactive)
- GI50 (SK-MEL-28): 61 µM (inactive)
- GI50 (SK-MEL-2): 55.7 µM (inactive)
- GI50 (SK-MEL-5): 40.2 µM (inactive)
- GI50 (SK-OV-3): 74.1 µM (inactive)
- GI50 (SN12C): 42.6 µM (inactive)
- GI50 (SNB-19): 55.5 µM (inactive)
- GI50 (SR): 25.5 µM (inactive)
- GI50 (SW-620): 35.6 µM (inactive)
- GI50 (TK-10): 64.9 µM (inactive)
- GI50 (U-251): 49.3 µM (inactive)
- GI50 (UACC-257): 48.6 µM (inactive)
- GI50 (UACC-62): 51.3 µM (inactive)
- GI50 (XF498): 43.3 µM (inactive)
